Laboratory results reported in patent publication US7833983B2, “Analytical method and kit thereof” (Phadia, AB, priority 2003, dated 2010).
Values joined by “and” are separate entries in the source; they are usually repeats but may differ in a detail not shown here. Identical values can stand only once. Non-standard residues stand in square brackets, D forms with d. No end group written: not given here. Arg(Me2s) = CN=C(NC)NCCC[C@H](N)C(=O)O

How the values were obtained:
[1] = test system: anti-centromere antibodies (ACA; serum CEN); assay: Epitope-mapping with immobilized oligopeptides (peptide arrays) probed with control sera (e.g. CEN); assay type: binding, human; conditions: serum 1:100
Text: (§1) Sera (n=628) were collected from patients suffering from systemic lupus erytlhrematosus (SLE; n=176), rheumatoid arthritis (RA, n=86), Sjögren syndrome (SS, n=24); mixed connective tissue disease (MCTD, n=26), scleroderma (SSc, n=26) and polymyositis/dermatomyositis (PM/DM, n=13). All patients were classified according to the ACR-criteria for each disease (Tan et al., 1982; Arnett et al., 1988). To further assess the assay specificity, we analyzed a group of sera from patients with infection diseases (n=77) including hepatitis-C (HCV; n=30), cytomegalo (CMV; n=22) and Epstein-Barr Virus (EBV; n=25) as well as from 192 healthy blood donors. All sera were stored at −80° C. until use. For epitope-mapping a panel of five sera containing anti-Sm antibodies was used. As negative controls autoimmune sera with other antibody specificities than anti-Sm were selected.
The published sequences of SmD1, P13641, (Rokeach et al., 1988) and SmD3, P43331, (Lehmeier et al., 1994) were used to synthesize overlapping 15 mer peptides with a pipetting robot according to the protocol described by Gausepohl and Behn (2002). The C-terminal extensions of both polypeptides were synthesized with an offset of 2 amino acids (13 amino acids overlap). […]

anti-S33 antibodies = assay: S33-peptide ELISA (Varelisa protocol) with patient and control sera; assay type: binding, human
Text: as §1
Preparation of ELISA-plates. The lyophilized S33 peptide was used to prepare a stock solution of 10 μg/μl, which was stored in aliquots at −20° C. until use. Binding of the peptide to ELISA plates was carried out using 2.5 μg/ml of the peptide in coating buffer in a final volume of 120 μl per well. The coating procedure was carried out at 15° C. for 20 h. Unspecific binding sites were blocked with blocking solution. After discarding the blocking solution solid phases were dried at 37° C. for 2 h and sealed.
The assay was performed according to the general protocol of the Varelisa® system (Pharmacia Diagnostics, Freiburg). […] The cut-off was technically set to 13 U/ml after ROC-analysis. PPVs and NPVs were calculated at different cut-off values. […]
A 15 amino acid soluble peptide displaying highest sensitivity and specificity in the SPOT-assay (^108AARGsdRGRGMGRGNIF^122) (SEQ ID NO: 1) was synthesized for technical reasons with an additional Cys at the C-terminus. This peptide was subsequently used to develop an ELISA system based on the general protocol of the Varelisa® tests (Pharmacia, Freiburg, Germany).

anti-Sm antibodies = assay: Correlation study: anti-S33 ELISA versus commercially available anti-Sm antibody tests; assay type: binding, human; conditions: for Reactivity of control serum: suggested cut-off 13
Procedure: Randomly selected SLE sera (n=50) and various controls (n=100) were tested using the commercially available anti-Sm antibody tests from different suppliers (Sm test A—Sm Test D) and the results were compared to the findings of the anti-S33 ELISA test.

pI of the peptide = assay type: physicochemical
[2] = Rheumatic diseases (181), cut-off 13 U/ml
[3] = randomly selected SLE sera (n = 101)

Substance: AARG sdR GRGMGRGNIF (AARG[Arg(Me2s)]GRGMGRGNIF) [S33, SmD3 aa 108-122 mimotope peptide with a single symmetrical dimethylarginine at position 112; ELISA version with additional C-terminal Cys]
- antibody binding of control sera [1]: not with the controls
- Mean value (anti-S33 antibodies; CMV (22)): 0.8 U/ml
- Top value (anti-S33 antibodies; CMV (22)): 3.2 U/ml
- No. of anti-S33-positive sera (anti-S33 antibodies; CMV (22), cut-off 13 U/ml): 0
- Mean value (anti-S33 antibodies; EBV (25)): 0.78 U/ml
- Top value (anti-S33 antibodies; EBV (25)): 3.3 U/ml
- Mean value (anti-S33 antibodies; HCV (30)): 0.42 U/ml
- Top value (anti-S33 antibodies; HCV (30)): 1.1 U/ml
- No. of anti-S33-positive sera (anti-S33 antibodies; HCV (30), cut-off 13 U/ml): 0
- Mean value (anti-S33 antibodies; Healthy individuals (192)): 2.2 U/ml and 2.21 U/ml
- Top value (anti-S33 antibodies; Healthy individuals (192)): 11.5 U/ml
- No. of anti-S33-positive sera (anti-S33 antibodies; Healthy individuals (192), cut-off 13 U/ml): 0
- Mean value (anti-S33 antibodies; Infectious diseases (77)): 0.67 U/ml
- Top value (anti-S33 antibodies; Infectious diseases (77)): 3.3 U/ml
- No. of anti-S33-positive sera (anti-S33 antibodies; Infectious diseases (77), cut-off 13 U/ml): 0
- Mean value (anti-S33 antibodies; MCTD (26)): 3.1 U/ml
- Top value (anti-S33 antibodies; MCTD (26)): 12.8 U/ml
- No. of anti-S33-positive sera (anti-S33 antibodies; MCTD (26), cut-off 13 U/ml): 0
- Mean value (anti-S33 antibodies; PM/DM (13)): 2.8 U/ml
- Top value (anti-S33 antibodies; PM/DM (13)): 9.6 U/ml
- No. of anti-S33-positive sera (anti-S33 antibodies; PM/DM (13), cut-off 13 U/ml): 0
- Mean value (anti-S33 antibodies; RA (86)): 1.6 U/ml
- Top value (anti-S33 antibodies; RA (86)): 24.6 U/ml
- % of anti-S33-positive sera (anti-S33 antibodies; RA (86), cut-off 13 U/ml): (1.2) %
- No. of anti-S33-positive sera (anti-S33 antibodies; RA (86), cut-off 13 U/ml): 1
- Mean value (anti-S33 antibodies; Rheumatic diseases (181)): 2.2 U/ml
- Top value (anti-S33 antibodies; Rheumatic diseases (181)): 24.6 U/ml
- % of anti-S33-positive sera (anti-S33 antibodies; [2]): (0.6) %
- No. of anti-S33-positive sera (anti-S33 antibodies; [2]): 1
- Mean value (anti-S33 antibodies; SLE (n = 176)): 43 U/ml and 43.0 U/ml
- No. of anti-S33-positive sera (anti-S33 antibodies; SLE (n = 176), cut-off 13 U/ml): 28 and 15
- anti-S33 peptide reactivity (anti-S33 antibodies; SLE patient #89, anti-SmD negative): 15.4 units
- anti-S33 peptide reactivity (anti-S33 antibodies; SLE patient #92, anti-SmD negative): 21.3 units
- anti-S33 peptide reactivity (anti-S33 antibodies; SLE patient #9811, anti-SmD negative): 13.9 units
- anti-S33 peptide reactivity (anti-S33 antibodies; SLE patient #20627, anti-SmD negative): 41.3 units
- immunoresponse to the new Sm antigen (S33) (anti-S33 antibodies; SLE patient, beginning of the 18 month follow-up study, inactive phase of disease): 337.5 U/ml
- Mean value (anti-S33 antibodies; SSc (26)): 2.4 U/ml
- Top value (anti-S33 antibodies; SSc (26)): 4.3 U/ml
- No. of anti-S33-positive sera (anti-S33 antibodies; SSc (26), cut-off 13 U/ml): 0
- reactivity range (anti-S33 antibodies; blood donors): 0.4-11.5 U/ml
- % of control sera tested positive (anti-S33 antibodies; controls (n=449), cut-off 13 U/ml): 0.2%
- Mean value (anti-S33 antibodies; pSS (24)): 1.9 U/ml
- Top value (anti-S33 antibodies; pSS (24)): 3.9 U/ml
- No. of anti-S33-positive sera (anti-S33 antibodies; pSS (24), cut-off 13 U/ml): 0
- S33+ among sera with Aab to La (%) (anti-S33 antibodies; [3]): 18.2%
- S33+ among sera with Aab to La (number) (anti-S33 antibodies; [3]): 4/22
- S33+ among sera with Aab to Ro-52 (%) (anti-S33 antibodies; [3]): 22.7%
- S33+ among sera with Aab to Ro-52 (number) (anti-S33 antibodies; [3]): 5/22
- S33+ among sera with Aab to Ro-60 (%) (anti-S33 antibodies; [3]): 25%
- S33+ among sera with Aab to Ro-60 (number) (anti-S33 antibodies; [3]): 12/48
- S33+ among sera with Aab to SmBB′ (%) (anti-S33 antibodies; [3]): 50%
- S33+ among sera with Aab to SmBB′ (number) (anti-S33 antibodies; [3]): 11/22
- S33+ among sera with Aab to SmD (%) (anti-S33 antibodies; [3]): 68.8%
- S33+ among sera with Aab to SmD (number) (anti-S33 antibodies; [3]): 11/16
- S33+ among sera with Aab to U1-68 kD (%) (anti-S33 antibodies; [3]): 50%
- S33+ among sera with Aab to U1-A (%) (anti-S33 antibodies; [3]): 48%
- S33+ among sera with Aab to U1-A (number) (anti-S33 antibodies; [3]): 12/25
- S33+ among sera with Aab to U1-C (%) (anti-S33 antibodies; [3]): 42.3%
- S33+ among sera with Aab to U1-C (number) (anti-S33 antibodies; [3]): 11/26
- S33+ among sera with Aab to dsDNA (%) (anti-S33 antibodies; [3]): 25.5%
- S33+ among sera with Aab to dsDNA (number) (anti-S33 antibodies; [3]): 13/51
- S33+ among sera with Aab to histone (%) (anti-S33 antibodies; [3]): 26.3%
- S33+ among sera with Aab to histone (number) (anti-S33 antibodies; [3]): 10/38
- S33+ among sera with Aab to β2-Glycoprotein (%) (anti-S33 antibodies; [3]): 25%
- S33+ among sera with Aab to β2-Glycoprotein (number) (anti-S33 antibodies; [3]): 4/16
- % of SLE sera positive (anti-Sm antibodies; 50 randomly selected SLE sera): 12%
- number of SLE sera positive (anti-Sm antibodies; 50 randomly selected SLE sera): 6
- % of controls positive (anti-Sm antibodies; 100 controls): 0%
- number of controls positive (anti-Sm antibodies; 100 controls): none
- Reactivity of control serum (anti-Sm antibodies; serum No. 105, ID 25516, MCTD): 3.0 U/ml
- Reactivity of control serum (anti-Sm antibodies; serum No. 107, ID 25518, MCTD): 1.0 U/ml
- Reactivity of control serum (anti-Sm antibodies; serum No. 108, ID 25519, MCTD): 0.0 U/ml
- Reactivity of control serum (anti-Sm antibodies; serum No. 110, ID 25521, MCTD): 0.5 U/ml
- Reactivity of control serum (anti-Sm antibodies; serum No. 112, ID 25523, MCTD): 0.0 U/ml
- Reactivity of control serum (anti-Sm antibodies; serum No. 121, ID 25532, MCTD): 2.6 U/ml
- Reactivity of control serum (anti-Sm antibodies; serum No. 123, ID 25534, MCTD): 1.1 U/ml
- Reactivity of control serum (anti-Sm antibodies; serum No. 126, ID 25537, MCTD): 3.2 U/ml
- Reactivity of control serum (anti-Sm antibodies; serum No. 128, ID 25539, MCTD): 0.7 U/ml
- Reactivity of control serum (anti-Sm antibodies; serum No. 129, ID 25540, MCTD): 4.1 U/ml
- Reactivity of control serum (anti-Sm antibodies; serum No. 132, ID 25543, MCTD): 2.4 U/ml
- Reactivity of control serum (anti-Sm antibodies; serum No. 133, ID 25544, MCTD, SLE): 9.9 U/ml
- Reactivity of control serum (anti-Sm antibodies; serum No. 137, ID 25448, SSc): 2.2 U/ml
- Reactivity of control serum (anti-Sm antibodies; serum No. 145, ID 25456, MCTD): 1.1 U/ml
- pI (pI of the peptide): > 12.88
